Reference: patent US11440918B2, “p38α mitogen-activated protein kinase inhibitors” (priority 2020, dated 2022)

Assays:
[1] = test system: SARS-CoV-2 isolate BetaCoV/France/IDF0372/2020 (SARS-CoV-2 Paris); assay: Viral quantification via plaque assay in Paris; type: cell-based; conditions: Severe acute respiratory syndrome coronavirus 2
[2] = test system: SARS-CoV-2, isolate USA-WA1/2020 (SARS-CoV-2 New York); assay: SARS-CoV-2 anti-viral assay New York (N-protein staining); type: cell-based; conditions: Severe acute respiratory syndrome coronavirus 2; SARS-CoV-2 New York isolate, 48 hours; read-out: Anti-Viral NY IC50
SARS-CoV-2 = assay: microbe, parasite or virus in culture; type: cell-based; conditions: Severe acute respiratory syndrome coronavirus 2, read-out: IC50 for anti-SARS-CoVID-19 activity
[3] = test system: SARS-CoV-2 isolate BetaCoV/France/IDF0372/2020 (SARS-CoV-2 Paris); assay: SARS-CoV-2 anti-viral assay Paris (viral genomes by RT-qPCR); type: cell-based; conditions: Severe acute respiratory syndrome coronavirus 2; SARS-CoV-2 Paris isolate, 48 hours
[4] = 10 μM
[5] = 10 μM; remark: listed apart in the source
p38β = p38β (Homo sapiens (Human), UniProt Q15759); assay: Surface plasmon resonance (SPR) assay, Biacore T200
[6] = 10 μM; remark: listed apart in the source

Chain of p38β (Q15759 whole entry): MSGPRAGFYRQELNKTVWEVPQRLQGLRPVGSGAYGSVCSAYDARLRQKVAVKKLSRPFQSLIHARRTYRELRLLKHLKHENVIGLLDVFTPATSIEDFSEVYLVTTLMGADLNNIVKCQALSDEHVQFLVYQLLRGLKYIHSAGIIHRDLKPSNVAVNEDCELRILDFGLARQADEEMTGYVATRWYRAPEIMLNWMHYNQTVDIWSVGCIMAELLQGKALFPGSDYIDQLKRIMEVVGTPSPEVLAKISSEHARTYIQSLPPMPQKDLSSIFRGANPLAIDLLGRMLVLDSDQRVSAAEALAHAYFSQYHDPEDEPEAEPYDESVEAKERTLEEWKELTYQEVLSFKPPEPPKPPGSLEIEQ

| Compound | IC50 [1] | IC50 [2] | IC50 (SARS-CoV-2) | IC50 [3] | stable in human plasma [4] | stable in monkey plasma [5] | Kd (p38β) | stable in rat plasma [6] |
| --- | --- | --- | --- | --- | --- | --- | --- | --- |
| O=C(Nc1ccc(CN2CCC(O)CC2)cc1)c1ccc(Cl)cc1 [Compound 11, 4-chloro-N-(4-((4-hydroxypiperidin-1-yl)methyl)phenyl)benzamide] | 2.1 µM | 0.2 µM | < 10 µM | 1.6 µM | – | – | – | – |
| O=C(Nc1ccc(CN2CCC3(CCCO3)C2)cc1)c1ccc(Cl)cc1 (stereo not drawn) [Compound 6, N-(4-((1-oxa-7-azaspiro[4.4]nonan-7-yl)methyl)phenyl)-4-chlorobenzamide] | – | 6.4 µM | < 10 µM | 2.9 µM | at least 4 hours | at least 4 hours | < 0.01 µM | at least 4 hours |
| O=C(Nc1ccc(CN2CC3(COC3)C2)cc1)c1ccc(Cl)cc1 [Compound 2, N-(4-((2-oxa-6-azaspiro[3.3]heptan-6-yl)methyl)phenyl)-4-chlorobenzamide] | – | 1.2 µM | < 10 µM | 7.8 µM | – | – | – | – |
| O=C(Nc1ccc(CN2C[C@@H]3COC[C@@H](C3)C2)cc1)c1ccc(Cl)cc1 [Compound 9, N-(4-(((1R,5S)-3-oxa-7-azabicyclo[3.3.1]nonan-7-yl)methyl)phenyl)-4-chlorobenzamide] | – | – | – | 3.1 µM | – | – | – | – |
| C[C@H]1CN(Cc2ccc(NC(=O)c3ccc(Cl)cc3)cc2)C[C@H](C)O1 [Compound 8, 4-chloro-N-(4-(((2S,6S)-2,6-dimethylmorpholino)methyl)phenyl)benzamide] | – | – | < 10 µM | – | at least 4 hours | at least 4 hours | < 0.01 µM | at least 4 hours |
| O=C(Nc1ccc(CN2CC3(CCOCC3)C2)cc1)c1ccc(Cl)cc1 [Compound 4, N-(4-((7-oxa-2-azaspiro[3.5]nonan-2-yl)methyl)phenyl)-4-chlorobenzamide] | 1.4 µM | 0.7 µM | < 10 µM | 2.1 µM | – | – | – | – |
| CC(=O)N1CCN(Cc2ccc(NC(=O)c3ccc(Cl)cc3)cc2)CC1 [Compound 14, N-(4-((4-acetylpiperazin-1-yl)methyl)phenyl)-4-chlorobenzamide] | – | – | – | – | at least 4 hours | at least 4 hours | < 0.01 µM | at least 4 hours |
| O=C(Nc1ccc(CN2CCOCC2)cc1)c1cnc(Cl)nc1 [Compound 3, 2-chloro-N-(4-(morpholinomethyl)phenyl)pyrimidine-5-carboxamide] | – | 1.2 µM | < 10 µM | 9.4 µM | – | – | – | – |
| CN1CCN(Cc2ccc(NC(=O)c3ccc(Cl)cc3)cc2)CC1 [Compound 17, 4-chloro-N-(4-((4-methylpiperazin-1-yl)methyl)phenyl)benzamide] | 2.7 µM | 0.7 µM | < 10 µM | 3.6 µM | – | – | – | – |
| O=C(Nc1ccc(CN2CCCOCC2)cc1)c1ccc(Cl)cc1 [Compound 1, N-(4-((1,4-oxazepan-4-yl)methyl)phenyl)-4-chlorobenzamide] | 1.8 µM | 0.7 µM | < 10 µM | 0.6 µM | at least 4 hours | at least 4 hours | < 0.01 µM | at least 4 hours |
| O=C(Nc1ccc(CN2CCC(O)C2)cc1)c1ccc(Cl)cc1 (stereo not drawn) [Compound 13, 4-chloro-N-(4-((3-hydroxypyrrolidin-1-yl)methyl)phenyl)benzamide] | – | – | < 10 µM | 3.4 µM | – | – | – | – |
| O=C(Nc1ccc(CN2C[C@H]3COC[C@H]3C2)cc1)c1ccc(Cl)cc1 [Compound 10, 4-chloro-N-(4-(((3aR,6aS)-tetrahydro-1H-furo[3,4-c]pyrrol-5(3H)—1)methyl)phenyl)benzamide] | 2.8 µM | 0.2 µM | – | 1.3 µM | at least 4 hours | at least 4 hours | – | at least 4 hours |
